According to US6716857B2, “Tetrahydropyridine derivatives acting on muscarinic acetylcholine receptors” (Korea Institute of Science and Technology, priority 2001, dated 2004):

What was measured:
[1] = system: Oxo-M binding receptor of muscarinic receptors (rat forebrain synapse membranes); assay: [3H]-oxotremorine-M ([3H]-Oxo-M) affinity screening test; settings: ratio IC50 NMS / IC50 Oxo-M; >180 full agonist, 14 to 130 partial agonist, 0.2 to 1.9 antagonist
Description: (§1) [^3H]-oxotremorine-M ([^3H]-Oxo-M) Affinity Screening Test
(§2) The experimental principle was the same as [^3H]-NMS affinity screening test. […] The functions of the compounds may be determined by carrying out both of [^3H]-NMS and [^3H]-Oxo-M (oxotremorine) affinity screening tests to measure their respective IC50 values and calculating ratios (NMS/Oxo-M) of the measured IC50 values.
(§3) Synapse membranes for binding assay of Oxo-M binding receptor of muscarinic receptors were directly prepared and used in the laboratory as follows: male Sparague-Dawley rats (supplied from Laboratory Animal Center of Korea Research Institute of Chemical Technology, 250 to 300 g) were sacrificed by decapitation. The brain tissues were immediately removed from and the forebrain was obtained, which was sectioned into small pieces. After adding 10-fold amount of ice-cooled solution of sucrose (0.32M), the sectioned forebrain was homogenized using Teflon-glass homogenizer (Contorque, Eberbach) at 10 strokes and 500 rpm, centrifuged at 1000 g for 15 minutes, and then the supernatant was again centrifuged at 17000 g for 20 minutes. The pellet was stored at −20° C. and then used.
(§4) Before the pellet was used at this assay, it was suspended in 10 mL of 20 mM HEPES buffer (pH 7.4), again centrifuged at 17000 g for 15 minutes and then washed. Finally, the washed membrane was diluted in ice-cooled 20 mM HEPES buffer (pH 7.4) to the final concentration of 1:100 (wet wt/v) and used at this assay. All test samples were tested four times, and 20 mM HEPES buffer (pH 7.4) was used as a buffer for screening test. The final volume of reaction was 1 mL, and 24-well plate (costar 24-well) was used. 50 μL of hot-ligand (Oxo-M 5 nM) and 10 μL of test drugs were included therein, and the reaction was initiated by adding 750 μL of synapse membrane and continued at 30° C. for 40 minutes on the shaking incubator. 2 μM atropine was used for non-specific binding in all tests. After completion of the reaction, the receptor binding ligands and non-binding ligands were separated by using Inotech cell harvester (24-channels, Inotech, Switzerland) and filtering under reduced pressure (10×ice-cooled saline) with Wallac GF/C filter (pre-immersed in 0.05% polyethylene imine). The radioactivity of the receptor binding ligands was detected by Liquid Scintillation Counter (MicroBeta Plus, Wallac, Finland).
(§5) The test drugs were diluted sequentially for the required concentrations by dissolving them in dimethylsulfoxide (DMSO) and used in the test. […] From the saturated affinity screening test, Kd and Bmax values, and IC50 or Ki values of respective test drugs were calculated by observing the non-linear regression using prism (Graphpad software Inc., USA). The saturated affinity screening test was carried out in the range of 0.1 to 10 nM of [^3H]-Oxo-M ligand as described above.

[2] = system: T1, Oxo-M binding receptor of muscarinic receptors (rat forebrain synapse membranes); assay: as above; settings: inhibition of specific [3H]-Oxo-M binding, under head M1; for M1 Oxo-M (1 μM) inhibition: compound at 1 μM
T1 construct: under head M1
Description: as §1, §2, §3, §4, §5

[3] = target: T2, human recombinant muscarinic receptor subtype 1 (M1) expressed in CHO cells (Homo sapiens, UniProt P11229); assay: [3H]-N-methyl-scopolamine ([3H]-NMS) affinity screening test, M1; settings: inhibition of specific [3H]-NMS binding
T2 construct: purchased Biosignal, Canada; host or cells: CHO cells
T2 sequence (P11229 1-460): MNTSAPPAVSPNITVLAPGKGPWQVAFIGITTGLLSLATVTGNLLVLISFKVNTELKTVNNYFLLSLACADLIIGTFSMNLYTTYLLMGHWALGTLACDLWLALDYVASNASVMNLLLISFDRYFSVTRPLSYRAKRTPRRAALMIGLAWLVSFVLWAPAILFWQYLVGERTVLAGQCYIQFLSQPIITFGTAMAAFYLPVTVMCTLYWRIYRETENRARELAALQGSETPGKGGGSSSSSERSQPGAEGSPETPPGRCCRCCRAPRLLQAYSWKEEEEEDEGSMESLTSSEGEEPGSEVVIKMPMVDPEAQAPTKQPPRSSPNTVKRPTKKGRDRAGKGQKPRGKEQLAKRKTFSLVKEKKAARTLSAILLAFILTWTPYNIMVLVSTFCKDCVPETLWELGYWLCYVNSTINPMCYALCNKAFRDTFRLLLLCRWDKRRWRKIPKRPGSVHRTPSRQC
Description: (§6) [^3H]-N-methyl-scopolamine ([^3H]-NMS) Affinity Screening Test
(§7) In order to exclude the interaction between subtypes, human recombinant muscarinic receptor subtypes 1, 2 and 3 expressed in CHO cells (M1, M2 and M3, Biosignal, Canada) were purchased and used as receptor sources. [^3H]-N-methyl-scopolamine (NEN, NET-636) was used as radioisotope labeled ligands, and atropine was used for the measurement of the non-specific binding ability. About 10 kinds of experimental apparatuses including Liquid Scintillation Counter (MicroBeta 1450 plus), Inotech cell harvester (96-well) were used.
(§8) In order to determine the effect of each compound on M1 and M2 receptors, the compounds were reacted with the receptors using radioisotope labeled ligands. After the reaction, the excess unbound ligands were removed by filtering with a glass fiber filter.
The freeze-stored receptors at −70° C. were suspended in test buffer solutions and then the screening test (BioRad protein) was carried out to determine the optimum concentration of the proteins. Thereafter, 50 μL of hot-ligands and 10 μL of test drugs were added to 96-well plate and 100 μL of 50 mM TRIS buffer (pH 7.2) containing 10 mM MgCl2 and 1 mM EDTA was added as a test buffer. The final volume of the reaction was 0.25 mL. The reaction was initiated by adding 100 μL of the diluted receptor suspension, and continued for 60 minutes on a shaking incubator at 27° C. This test was repeated four times. After 60 minutes, the reaction was terminated by adding cold TRIS buffer (0.5 mL, pH 7.4). The excess unbound radioisotopes were removed from the reaction mixture using Inotech cell harvester system. After washing the mixture, the radioactivity detected by the filter mat was measured using Liquid Scintillation Counter. As primary stage of the efficacy screening, the drugs at two concentrations (1 μM, 10 μM) were screened for their affinity for the receptors. […] Finally, IC50 values were calculated at the gradient of 10 concentrations. The test drugs were diluted sequentially for the required concentrations by dissolving them in dimethylsulfoxide (DMSO). […] From the saturation affinity screening test, Kd and Bmax values, and IC50 or Ki values of each test drugs were calculated by observing the non-linear regression using prism (Graphpad software Inc.,USA).
(§9) In the equilibrium affinity screening test, [^3H]-N-methyl-scopolamines at the gradient of 12 concentrations were used for the measurement of the binding ability (IC50). In the competition screening test, 1 nM of [^3H]-N-methyl-scopolamines, and the reference drugs at the gradient of 10 concentrations were used for the measurement. 4-DAMP-methyliodide, Pirenzepine, p-F-hexahydro-sila-defenidol, Methoctramine, and the like were used as reference drugs.

[4] = target: T3, human recombinant muscarinic receptor subtype 2 (M2) expressed in CHO cells (Homo sapiens, UniProt P08172); assay: [3H]-N-methyl-scopolamine ([3H]-NMS) affinity screening test, M2; settings: inhibition of specific [3H]-NMS binding, compound at 1 μM
T3 construct: purchased Biosignal, Canada; host or cells: CHO cells
T3 sequence (P08172 1-466): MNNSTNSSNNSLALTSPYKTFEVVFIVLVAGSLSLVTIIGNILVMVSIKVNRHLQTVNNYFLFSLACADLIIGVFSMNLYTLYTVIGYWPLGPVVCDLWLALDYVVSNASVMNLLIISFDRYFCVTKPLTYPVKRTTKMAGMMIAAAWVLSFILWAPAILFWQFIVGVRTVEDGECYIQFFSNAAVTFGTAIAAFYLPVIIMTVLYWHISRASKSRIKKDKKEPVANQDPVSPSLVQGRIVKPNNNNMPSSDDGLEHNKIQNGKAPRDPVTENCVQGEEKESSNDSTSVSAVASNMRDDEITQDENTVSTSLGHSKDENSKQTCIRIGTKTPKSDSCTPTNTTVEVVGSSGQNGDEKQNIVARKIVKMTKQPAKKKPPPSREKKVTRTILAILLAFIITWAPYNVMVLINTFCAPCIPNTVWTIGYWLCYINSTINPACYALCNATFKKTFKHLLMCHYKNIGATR
Description: as §6, §7
as §8, with “filter. The amount of radioisotopes remaining on the washed filter plate was then measured to quantify the binding reaction between the receptors and the ligands and, from the result, the affinity of the drugs for the receptors was determined.” for “filter.”
The freeze-stored receptors at −70° C. were suspended in test buffer solutions and then the screening test (BioRad protein) was carried out to determine the optimum concentration of the proteins. Thereafter, 50 μL of hot-ligands and 10 μL of test drugs were added to 96-well plate and 100 μL of 50 mM TRIS buffer (pH 7.2) containing 10 mM MgCl2 and 1 mM EDTA was added as a test buffer. The final volume of the reaction was 0.25 mL. The reaction was initiated by adding 100 μL of the diluted receptor suspension, and continued for 60 minutes on a shaking incubator at 27° C. This test was repeated four times. After 60 minutes, the reaction was terminated by adding cold TRIS buffer (0.5 mL, pH 7.4). The excess unbound radioisotopes were removed from the reaction mixture using Inotech cell harvester system. After washing the mixture, the radioactivity detected by the filter mat was measured using Liquid Scintillation Counter. As primary stage of the efficacy screening, the drugs at two concentrations (1 μM, 10 μM) were screened for their affinity for the receptors. As secondary stage, drugs showing remarkable efficacies were determined at the lower concentrations. Finally, IC50 values were calculated at the gradient of 10 concentrations. The test drugs were diluted sequentially for the required concentrations by dissolving them in dimethylsulfoxide (DMSO). […] From the saturation affinity screening test, Kd and Bmax values, and IC50 or Ki values of each test drugs were calculated by observing the non-linear regression using prism (Graphpad software Inc.,USA).
as §9

CN1CCC=C(C(CN2CCCC2=O)=NO)C1 [Example 26, 1-[2-hydroxyimino-2-(1-methyl-1,2,5,6-tetrahydro-pyridin-3-yl)-ethyl]-pyrrolidin-2-one]
NMS/Oxo-M (ratio of IC50 values) [1]: 4078 | M1 Oxo-M (1 μM) inhibition [2]: 96.9% | IC50 [2]: 0.89 nM | IC50 [3]: 3630 nM | inhibition at 10 µM ([3]; compound at 10 μM): 87.6% | inhibition at 1 µM [4]: 94.1%

COC(=O)C1=CCCN(C)C1 [Arecoline, reference compound]
M1 Oxo-M (1 μM) inhibition [2]: 85.5% | IC50 [2]: 140 nM

CN1CCC=C(C(CN2CCCC2=O)=NOCc2ccccc2)C1 (mixture of isomers) [Example 29, 1-[2-benzyloxyimino-2-(1-methyl-1,2,5,6-tetrahydro-pyridin-3-yl)-ethyl]-pyrrolidin-2-one]
NMS/Oxo-M (ratio of IC50 values) [1]: 486 | M1 Oxo-M (1 μM) inhibition [2]: 78.4% | IC50 [2]: 163 nM | IC50 [3]: 79200 nM | inhibition at 10 µM ([3]; compound at 10 μM): 0% | inhibition at 1 µM [4]: 0%

C#CCON=C(CN1CCCC1=O)c1cccnc1 [Example 24, 1-(2-propyn-2-yloxyimino-2-pyridin-3-yl-ethyl)-pyrrolidin-2-one]
NMS/Oxo-M (ratio of IC50 values) [1]: 306 | M1 Oxo-M (1 μM) inhibition [2]: 58.0% | IC50 [2]: 327 nM | M1 NMS (10 μM) inhibition ([3]; compound at 10 μM): 0% | M2 NMS (1 μM) inhibition [4]: 0%

CN1CCC=C(C(CCN2CCCC2=O)=NO)C1 [Example 16, 1-[3-hydroxyimino-3-(1-methyl-1,2,5,6-tetrahydro-pyridin-3-yl)-propyl]-pyrrolidin-2-one]
NMS/Oxo-M (ratio of IC50 values) [1]: 236 | M1 Oxo-M (1 μM) inhibition [2]: 92.4% | IC50 [2]: 74 nM | IC50 [3]: 17400 nM | inhibition at 10 µM ([3]; compound at 10 μM): 39.5% | inhibition at 1 µM [4]: 22.6%

CN1CCC=C(C#CCN2CCCC2=O)C1 [Example 30, 1-[3-(1-methyl-1,2,5,6-tetrahydro-pyridin-3-yl)-propyn-2-yl]-pyrrolidin-2-one]
NMS/Oxo-M (ratio of IC50 values) [1]: 774 | M1 Oxo-M (1 μM) inhibition [2]: 96.6% | IC50 [2]: 14 nM | IC50 [3]: 10800 nM | inhibition at 10 µM ([3]; compound at 10 μM): 58.5% | inhibition at 1 µM [4]: 42.3%

C#CCON=C(CCN1CCCC1=O)C1=CCCN(C)C1 [Example 18, 1-[3-(1-methyl-1,2,5,6-tetrahydro-pyridin-3-yl)-3-propyn-2-yloxyimino-propyl]-pyrrolidin-2-one]
NMS/Oxo-M (ratio of IC50 values) [1]: 35 | M1 Oxo-M (1 μM) inhibition [2]: 75.3% | IC50 [2]: 381 nM | IC50 [3]: 13400 nM | inhibition at 10 µM ([3]; compound at 10 μM): 42.9% | inhibition at 1 µM [4]: 26.8%
